Test results as given in patent US20260048076A1, “METHODS FOR DECREASING OR INHIBITING HUMAN L1 RETROTRANSPOSON RNA AND COMPOSITIONS FOR USE THEREIN” (ALTOS LABS, INC., priority 2022, published 2026).
[FANA] = 2'-fluoro-arabino; d = 2'-deoxy (DNA)

Key:
Type in all cases: cell-based, human
HGPS hMSCs = test: Comparison of 3TC and L1 translation blocker with L1 RNA depletion in HGPS hMSCs (senescence gene qPCR, immuno-FISH, SA-β-gal); details: 3TC 10 mM, translation inhibitor ASOs 20 nM
Description: (§1) Tail tip fibroblasts (TTFs) were isolated from WT and LAKI mice and cultured at 37° C. in Dulbecco's Modified Eagle Medium (DMEM) (Invitrogen) containing Gluta-MAX, non-essential amino acids, and 10% fetal bovine serum (FBS, Gibco). WT and HGPS human dermal fibroblast were obtained from Coriell Biobank (WT: AG06234, AG10108, AG09309, AG10803, AG03257. HGPS: AG06917, AG11498, AG10578, AG11572, AG06297. APS: AG041100 (LMNA E578V), AG00989 (LMNA R644C), AG00990 (LMNA T10I), AG09233 (unknown mutation). WRN: AG12798; AG24467; AG06300; AG00780; AG05229). For LINE-1 knockdown, cells were incubated with 1 μM FANA ASO dissolved in culture medium (61) every 4 days and collected after two passages for senescent marker expression or immunohistochemistry. 3TC (Sigma-Aldrich) treatments were performed at 10 mM as in De Cecco et al. (11). Translation inhibitor ASOs (miRCURY LNA, Qiagen) were used at a final concentration of 20 nM and transfected with RNAiMAX (Invitrogen, Thermo Fisher Scientific) following manufacturer instructions. […]
(§2) Cells were fixed with 4% formaldehyde in PBS at room temperature (RT) for 10 min. […] Z-stack 3D reconstruction, nuclei segmentation, and fluorescence signal quantification were performed using Imaris (v.8.4.1) using nuclei volume as a reference to normalize fluorescence signals. […]

WRN hMSCs = test: Comparison of 3TC and L1 translation blocker with L1 RNA depletion in WRN hMSCs (senescence gene qPCR, immuno-FISH, SA-β-gal); details: 3TC 10 mM, translation inhibitor ASOs 20 nM
Description: as §1, §2

HGPS fibroblasts = test: Quantitative mass spectrometry proteome analysis in HGPS fibroblasts
Description: (§3) Total protein extracts were prepared with RIPA buffer (50mMTris-cl pH 8.0, 5 mM EDTA, 150 mM Nacl, 15 mM Mgcl2, 1% NP-40, 1 mM PMSF and 1× Protease Inhibitor Cocktail (PIC)). Further, a sonication step was included: (30S ON, 30S OFF, 10 cycles with Bioruptor). Equal […] protein extracts were concentrated to […] volume, then diluted in 8M urea in 0.1M Tris-HCl, followed by protein digestion with trypsin, according to the FASP protocol(66). After an overnight digestion, the peptides were eluted from the filters with 25 mM ammonium bicarbonate buffer. The eluted peptides were processed in the desalting step by using Sep-Pag C18 Column (waters) based on the manufacture's instruction. Approximately 200 ng of peptide mixture per sample was analyzed using a timsTOF Pro 2 QTOF mass spectrometer coupled with a nanoElute liquid chromatography system (Bruker Daltonik GmbH, Germany). The sample was injected directly into a RP-C18 Aurora emitter column (75 μm i.d.×250 mm, 1.6 μm, 120 Å pore size) (Ion Opticks, Australia) using a one-column separation method. An 80-min gradient was established using mobile phase A (0.1% FA in H2O) and mobile phase B (0.1% FA in Acetonitrile): 2-25% B for 60 min, 25-37% for 10 min, ramping 37% to 95% in 5 min, and maintaining 95% B for 5 min. The column temperature was set at 50° C. and the flow rate at 250 nl/min. […]

WRN fibroblasts = test: Quantitative mass spectrometry proteome analysis in WRN fibroblasts
Description: as §3

Row | Molecule | anti-aging effect (senescence-associated gene expression, H3K9me3, SA-β-gal positive cells) (HGPS hMSCs) | anti-aging effect (senescence-associated gene expression, H3K9me3, SA-β-gal positive cells) (WRN hMSCs) | protein differential expression (quantitative mass spectrometry) (HGPS fibroblasts) | protein differential expression (quantitative mass spectrometry) (WRN fibroblasts)
1 | Nc1ccn([C@@H]2CS[C@H](CO)O2)c(=O)n1 [3TC] | no effect | less potent anti-aging effect compared to L1 RNA depletion | – | –
2 | A*C*T* T*C*C CTT CTC GCT TC*A*T*T*T* (ACTTCCCTTCTCGCTTCATTT; sugars from the 5' end [FANA]5 d11 [FANA]5, backbone and methylation of C not given here; listed as Homo sapiens) [human L1 2′F-ANA ASO #1, L1-specific 2′F-ANA modified ASO used in all human cell experiments; * denotes 2′F-ANA modified nucleotides] | – | – | ameliorated the aged phenotype also at proteome global level | ameliorated the aged phenotype also at proteome global level
